Our source for the Activity and inhibition values is ChEMBL document CHEMBL2331281, “Isolation of ciliatamide D from a marine sponge Stelletta sp. and a reinvestigation of the configuration of ciliatamide A” (J Nat Prod, 2013).

The test system of one assay is HeLa. The experiment in a line: Cytotoxicity against human HeLa cells at 50 ug/ml after 72 hrs by MTT assay. The format is functional, cell-based.
In assay [1] the target is Cathepsin B (Homo sapiens) (UniProt P07858). The experiment in a line: Inhibition of cathepsin B (unknown origin) using Z-Arg-Arg-AMC as substrate at 50 ug/ml after 30 mins by fluorescence assay.

Calls of active or inactive are those of the source. No cut-off for these calls is given here.

In the case of `C=CCCCCCCCC(=O)N(C)[C@@H](CC[S+](C)[O-])C(=O)N[C@H]1CCCCNC1=O` (mixture of isomers), the result with HeLa was inactive. Moreover, in assay [1], the inhibition result was “inactive”.
